According to PubChem BioAssay (NCI):
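96-well plates; 48 h exposure; 5 concentrations. Endpoints by linear interpolation between flanking doses. Not reached: highest tested concentration assigned. Definition used: TGI = concentration required for complete inhibition of growth.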

Assays:
Experiment in all cases: NCI-60 cell line screen, 48 h
HCT-116 colon = test system: HCT-116 colon
NCI-H460 lung = test system: NCI-H460 lung
MDA-N = test system: MDA-N
786-0 renal = test system: 786-0 renal
SF-539 CNS = test system: SF-539 CNS
SK-OV-3 ovarian = test system: SK-OV-3 ovarian
HS 578T breast = test system: HS 578T breast
A549 NSCLC = test system: A549 NSCLC
SNB-19 CNS = test system: SNB-19 CNS
OVCAR-8 ovarian = test system: OVCAR-8 ovarian

Compound | TGI (HCT-116 colon) [µM] | TGI (NCI-H460 lung) [µM] | TGI (MDA-N) [µM] | TGI (786-0 renal) [µM] | TGI (SF-539 CNS) [µM] | TGI (SK-OV-3 ovarian) [µM] | TGI (HS 578T breast) [µM] | TGI (A549 NSCLC) [µM] | TGI (SNB-19 CNS) [µM] | TGI (OVCAR-8 ovarian) [µM]
CN1CCN(C2=CC(=O)c3c(O)ccc(O)c3C2=O)CC1 | 0.578 | 3.52 | 0.325 | 3.91 | 2.96 | > 10 | 4.1 | 3.5 | 3.05 | 
Cc1ccc(N=C2C(=Nc3ccc(C)cc3)N(c3ccc(C)cc3)C(=S)N2C(=O)c2ccccc2)cc1 |  | > 100 | > 100 | > 100 | > 100 | > 100 | > 100 | > 100 | > 100 | 
C[C@H]1COC2=C1C(=O)C(=O)c1c2ccc2c1CCCC2(C)C | 46.3 | > 34.5 | 3.26 | 35.2 | 18.2 | 83.6 | 9.55 | 4.55 | 66.4 | 22.9
CC1=C(C)C(=O)C(C2=CC(=O)C=CC2=O)=C(C2=CC(=O)C=CC2=O)C1=O | > 79.2 | > 100 | > 59.3 | > 100 | 51.7 | > 100 | > 100 | > 100 | > 100 | > 87.7
[N-]=[N+]=Nc1c([N+](=O)[O-])c(=O)n2c3c(cccc13)CCC2 | 30.2 | 35.1 | 27.9 | 30.9 | 52.2 | > 100 | > 77.3 | > 84.5 | > 100 | 35.1
Oc1cc(Br)cc2cc(Cl)cnc12 | > 42 | 32.6 | > 100 | 38.8 | > 100 | > 68.9 | 12.1 | > 56.1 | > 100 | > 40.6
COc1cc(CS(=O)c2ccc(O)cc2)cc(OC)c1OC (stereo not drawn) | > 100 | > 100 | > 100 | > 100 | > 100 | > 100 | > 100 | > 100 | > 100 | > 100
CCCCCCCCCCCCCC(=O)N(CCCCCCCCC)CC(O)C(O)C(OC1OC(CO)C(O)C(O)C1O)C(O)CO (stereo not drawn) | 32.1 | 39.1 | 38.1 | 32 | 51.3 | 30.8 | 51.9 | 50.5 | 44 | 39.3
OC1C[C@H](c2ccccc2)C2(C(O)c3ccccc3C2O)[C@@H](c2ccccc2)C1 (stereo partly drawn) | > 100 | > 100 | > 100 | > 100 | > 100 | > 100 | > 100 | > 100 | > 100 | > 100
CSc1scc2c1/C(=N/NC(N)=O)CCC2 | > 100 | > 100 | > 100 | > 100 | > 100 | > 100 | > 100 | > 100 | > 100 | > 100
CC(=O)OC1COC(Nc2nc(N)n(C)c(=O)c2N=O)C(OC(C)=O)C1OC(C)=O (stereo not drawn) | > 10 | > 10 | > 10 | > 10 | > 10 | > 10 | > 10 | > 10 | > 10 | > 10
O=[N+]([O-])C(Cl)=C/C(=C(\Cl)SCc1ccccc1)[N+](=O)[O-] | 44.1 | > 100 | 69.8 | 71.2 | 45 | > 100 | > 100 | 73.5 | > 100 | 59.9
CC(=O)/C(=C/N1CCNC1=S)C(=O)Nc1ccccc1C | > 100 | > 100 | > 100 | > 100 | > 100 | > 100 | > 100 | > 100 | > 100 | > 100
Cc1cc(S(=O)(=O)/N=C(/NN)NNc2cccc(C(F)(F)F)n2)c(S)cc1Cl | 50.6 | 72.8 | 29.2 | 47.9 | 43.6 | 53 | 54.4 | 44.1 | 68.8 | 58.3
NC(N)=NCCCC(NC(=O)OCCCCn1ccc(N)nc1=O)C(=O)O (stereo not drawn) | > 100 | > 100 | > 100 | > 100 | > 100 | > 100 | > 100 | > 100 | > 100 | 
O=C(CSc1nc2ccccc2c(=O)n1-c1ccccc1)N=Nc1c(O)[nH]c2ccc(F)cc12 | 4.46 | 4.69 | 14 | 5.05 | 9.21 | 3.75 | > 100 | 21.6 | 67.5 | 
N#CC(C#N)=C1C(=O)NC(N)=C1C#N | > 100 | > 100 | > 100 | > 100 |  | > 100 | > 100 | > 100 | > 100 | > 100
CN(Cc1cc(Cl)c(Cl)cc1NC(=O)CN)[C@H]1CCCC[C@@H]1N1CCCC1 | 45.2 | 57.8 | 31.4 | 33 |  | > 100 | 58.5 | > 100 | > 100 | > 100
